Experiments:
TRXR-1 = target: T1, TRXR-1 (Caenorhabditis elegans, UniProt Q17745); experiment: Thermal proteome profiling (TPP); type: binding; details: compound 50 μM, C. elegans lysate, 37-67 °C
T1 construct: from tissue; host or cells: whole-worm lysate of C. elegans N2 (young adults / L4s)

[1] = tested on: adult females of Haemonchus contortus; experiment: Motility of adult female H. contortus in vitro; type: cell-based; details: 40 μM; 24 h of incubation; normalised to negative control
Method: Adult H. contortus were collected from the abomasa of sheep infected for 10 weeks, washed extensively with phosphate-buffered saline (PBS, pH 7.4) and subsequently in RPMI 1640 media supplemented with final concentrations of 2 mM L-glutamine, 100 IU/mL of penicillin, 100 μg/mL of streptomycin and 0.25 μg/mL of amphotericin B (Thermo Fisher Scientific, Scoresby, VIC, Australia; this supplemented RPMI was designated RPMI*). Female and male worms were collected and separated immediately prior to compound testing.
The activity of UMW-9729 and six derivatives (12, 14, 15, 16, 18 and 25) was assessed on adult female specimens of H. contortus in an established assay ([Taki et al., 2020]). The compound was added in triplicate to the wells of a 24-well plate (cat. no. 3524; Corning, USA) at a concentration of 40 μM in 500 μL of RPMI* (RPMI supplemented with final concentrations of 2 mM L-glutamine, 100 IU/mL of penicillin, 100 μg/mL of streptomycin and 0.25 μg/mL of amphotericin B; Thermo Fisher Scientific, Scoresby, VIC, Australia). Two positive-control compounds, monepantel and moxidectin, and a negative control containing 1 % (v/v) DMSO only, were included in triplicates on the same plate. Three adult females were added to each of the triplicate wells containing either the test compound or the controls and placed in a CO2 incubator (10 % (v/v) CO2, 40 °C, >90 % relative humidity) for 1 day. A video recording (30 s) of each well was taken at 3 h, 6 h, 12 h and 24 h during the total incubation period to assess the reduction in worm motility, which was scored as 3 (“good”), 2 (“low”), 1 (“very low”) or 0 (“no movement”; cf. [Taki et al., 2020]). For each test or control compound, the motility scores for each of the triplicate wells were calculated, normalised with reference to the negative control (100 % motility) and recorded as a percentage.

H. contortus xL3s = experiment: H. contortus xL3 motility dose-response assay; type: cell-based, Haemonchus contortus
Method: Immediately prior to use in assays, H. contortus L3s were exsheathed via exposure to 0.15 % (v/v) sodium hypochlorite for 20 min at 38 °C ([Preston et al., 2015]), achieving an exsheathment rate of 90 %. The larvae were then immediately washed five times with 50 mL of sterile physiological saline (pH 7.0) by centrifugation at 2000×g (5 min) and resuspended (at a concentration of 300 xL3s per 50 μL) in sterile (autoclaved) lysogeny broth (LB; cf. [Bertani, 1951]; [Taki et al., 2021b]), supplemented with final concentrations of 100 IU/mL of penicillin, 100 μg/mL of streptomycin and 0.25 μg/mL of amphotericin B (Fungizone®, cat. No. 15240-062, Gibco, Thermo Fisher Scientific, Waltham, MA, USA); this supplemented LB was designated LB*.
The dose-response assay for H. contortus followed a well-established protocol ([Taki et al., 2021b]); it was employed to evaluate the potency of hit compounds against this nematode. Test compounds were assessed individually for an effect on the motility of xL3s (10-point, 2-fold serial dilution in LB*, 40 μM–[…]). […] A solution of LB* was used as a negative control. The test compounds and positive control compounds (monepantel and moxidectin) were arrayed in triplicate across individual flat-bottom 96-well microplates, with six wells on each plate containing the negative control. Added to each well were 300 xL3s of H. contortus in 50 μL of LB* to give a final volume of 100 μL. Plates were then placed in a CO2 incubator (10 % (v/v) CO2, 38 °C, >90 % humidity; Forma, model no. 311, Thermo Fisher Scientific, USA). […] Over a period of 15 min, disturbance of an infrared beam in individual wells was recorded as an ‘activity count’. Raw ‘activity counts’ for individual wells were normalised to the negative-controls. The compound concentrations were log10-transformed and fitted using a variable slope four-parameter equation, using the ordinary least squares fit model, employing Prism (v.9.1.0 GraphPad Software, San Diego, CA, USA). Larval development was established at 168 h of incubation with compound, as described previously ([Preston et al., 2015]). The phenotypes of larvae were examined using a microscope ([Preston et al., 2015]) and recorded.

UNC-11 = target: T2, UNC-11 (Caenorhabditis elegans, UniProt Q9XZI6); experiment: Thermal proteome profiling (TPP); type: binding; details: compound 50 μM, C. elegans lysate, 37-67 °C
T2 construct: from tissue; host or cells: whole-worm lysate of C. elegans N2 (young adults / L4s)
T2 sequence (Q9XZI6 whole entry): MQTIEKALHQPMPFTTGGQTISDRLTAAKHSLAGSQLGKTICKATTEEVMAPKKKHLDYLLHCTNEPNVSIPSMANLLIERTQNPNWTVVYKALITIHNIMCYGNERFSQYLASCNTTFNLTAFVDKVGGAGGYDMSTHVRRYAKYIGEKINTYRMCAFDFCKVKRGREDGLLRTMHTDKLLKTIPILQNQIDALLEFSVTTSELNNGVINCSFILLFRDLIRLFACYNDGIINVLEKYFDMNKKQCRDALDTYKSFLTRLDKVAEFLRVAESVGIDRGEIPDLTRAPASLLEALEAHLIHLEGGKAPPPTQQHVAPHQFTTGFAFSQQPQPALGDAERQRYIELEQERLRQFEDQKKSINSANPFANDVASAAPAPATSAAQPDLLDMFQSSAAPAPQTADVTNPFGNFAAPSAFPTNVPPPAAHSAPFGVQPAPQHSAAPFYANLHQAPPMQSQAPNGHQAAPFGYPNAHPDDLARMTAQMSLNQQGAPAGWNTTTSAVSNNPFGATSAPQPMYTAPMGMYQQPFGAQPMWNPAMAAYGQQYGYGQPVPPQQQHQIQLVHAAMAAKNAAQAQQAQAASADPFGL

T1 sequence (Q17745 whole entry): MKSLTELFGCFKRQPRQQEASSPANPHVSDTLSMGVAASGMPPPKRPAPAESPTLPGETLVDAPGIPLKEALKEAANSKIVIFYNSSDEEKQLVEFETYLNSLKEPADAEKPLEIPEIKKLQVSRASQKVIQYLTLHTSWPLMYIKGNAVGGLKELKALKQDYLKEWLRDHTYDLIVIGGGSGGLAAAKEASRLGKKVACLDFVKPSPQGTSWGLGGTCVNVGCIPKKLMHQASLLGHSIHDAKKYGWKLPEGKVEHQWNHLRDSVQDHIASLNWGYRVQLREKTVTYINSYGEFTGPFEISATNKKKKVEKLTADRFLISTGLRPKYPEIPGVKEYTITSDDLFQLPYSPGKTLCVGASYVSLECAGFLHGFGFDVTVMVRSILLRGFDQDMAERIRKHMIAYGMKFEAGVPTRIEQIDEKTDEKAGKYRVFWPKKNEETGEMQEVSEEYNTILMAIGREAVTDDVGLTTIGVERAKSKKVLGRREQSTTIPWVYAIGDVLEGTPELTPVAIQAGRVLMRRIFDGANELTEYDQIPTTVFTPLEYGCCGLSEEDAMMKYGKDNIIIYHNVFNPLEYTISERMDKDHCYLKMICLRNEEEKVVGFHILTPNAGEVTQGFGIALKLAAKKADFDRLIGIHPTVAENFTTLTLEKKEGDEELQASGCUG

## C(#Cc1ccc(-c2ccn[nH]2)cc1)c1ccccc1 [UMW-9729]
TRXR-1; NPARC
  F-statistic: 20.2
TRXR-1
  thermal stability of protein in the presence of compound: stabilised
[1]
  reduction of worm motility, adult females of H. contortus: did not
H. contortus xL3s; Haemonchus contortus, 90 h, xL3s, 90 h incubation (table title), three independent assays in triplicate, read-out: Worm motility IC50 ± SD, H. contortus xL3s
  IC50: 6.7 ± 0.4 µM
H. contortus xL3s; ratio of xL3 motility IC50 to moxidectin
  fold more active than moxidectin, H. contortus larvae: ~3 fold
UNC-11; NPARC
  F-statistic: 23.0
UNC-11
  thermal stability of protein in the presence of compound: stabilised
